# Where “and” joins values, the source holds several entries; their conditions need not be identical. Identical values can stand only once. Like-named read-outs stand apart in the source and are kept apart here.
# Experiments:
# Magnaporthe oryzae = assay type: cell-based; details: for M. oryzae fungal growth (mm): 30 min exposure, 4 days culture
# [1] = pH of diluted compositions and components; assay type: physicochemical
# spores of B. cinerea = assay: Sporicidal assay (1) with sodium nitrite, B. cinerea; assay type: cell-based, Botrytis cinerea
# spores of F. oxysporum = assay: Sporicidal assay (1) with sodium nitrite, F. oxysporum; assay type: cell-based, Fusarium oxysporum f. sp. cubense
# Rhizoctonia solani [2] = assay: Inhibition of fungal growth assay (radial growth on PDA); details: for IC50 (% of stock solution) on growth of R. solani: potato dextrose agar, 24 hour culture at 22° C.
# Method: Inhibition of fungal growth assay. The Rhizoctonia solani (R. solani) strain was isolated from sclerotia on the skin of a potato and was maintained in culture on potato dextrose agar (PDA) at room temperature (22° C.). To assess the effects of the compositions on fungal growth, 10 microliters of the test compositions diluted in sterile distilled water was placed in the wells of a 12-well tissue culture plate and 1 milliliter of PDA was added by pipette to each well. The plate was agitated to distribute the test composition evenly throughout the agar (distilled water alone was used as control) and then the agar was allowed to set. Plugs of agar containing fungal hyphae (3×3 millimeters) from an established fungal culture were cut out using a scalpel and inserted into holes cut into the centre of the agar in each well of the 12-well plate, which was then cultured at room temperature. To assess the effects of compositions on radial fungal growth, the diameter of the fungal hyphae was measured twice at a 90° angle using a ruler and the average diameter in millimeters was calculated. Concentrations of compositions required to inhibit the radial growth of R. solani by 50% (IC50) were determined graphically.
# Rhizoctonia solani [3] = system: Rhizoctonia solani
# Method: To assess the effects of composition on fungal growth, 10 microliters of the test compositions diluted in sterile distilled water were placed in the wells of a 12-well tissue culture plate and 1 milliliter of PDA was added by pipette to each well. The plate was agitated to distribute the test composition evenly throughout the agar (distilled water alone was used as control) and then the agar was allowed to set. Plugs of agar containing fungal hyphae (3×3 millimeters) from an established fungal culture were cut out using a scalpel and inserted into holes cut into the centre of the agar in each well of the 12-well plate, which was then cultured at room temperature (22° C.). To assess the effects of compositions on radial fungal growth, the diameter the fungal hyphae was measured twice at a 90° angle using a ruler and the average diameter in millimeters was calculated. If no fungal growth could be detected by eye, the cultures were observed by phase microscopy (40×) to confirm that there was no growth (NG) as judged by visual examination.
# To assess the effects of compounds and compositions on sclerotia formation, the R. solani cultures were examined daily and radial fungal growth was measured until the cultures were confluent after which time the development of white (immature) sclerotia and mature (black pigmented) sclerotia was noted and the number of mature sclerotia was counted on day 10 of culture.
# sclerotia of R. solani = assay: Scleroticidal assay with compositions and sodium nitrite; assay type: cell-based, Rhizoctonia solani
# From the text: Scleroticidal assay. Plugs of agar containing white immature sclerotia (3×3 millimeters) were cut from a 6 to 8 day culture of R. solani, whilst mature melanized (black) sclerotia (around 10×3 millimeters) were excised from 13-day old R. solani cultures and cut into 2×3 millimeter pieces with a scalpel. The sclerotia samples were then placed in the wells of a 96-well plate containing 75 microliters of various concentrations of sodium nitrite or sterile distilled water (DW) as control. TO start the reaction, 75 microliters of CuZn #31 (diluted in DW) was added to the wells. The plate was carefully shaken and incubated at room temperature for 10 minutes when the liquid was carefully removed and 150 microliters of CM-1 medium was added for 5 minutes to stop the reaction.
# [4] = NaNO2 0 mM, test item 0.3%, 30 min
# [5] = NaNO2 1 mM, test item 0.1%, 30 min
# [6] = NaNO2 1 mM, test item 0.3%, 30 min
# [7] = NaNO2 3 mM, test item 0.1%, 30 min
# [8] = NaNO2 3 mM, test item 0.3%, 30 min
# [9] = NaNO2 10 mM, test item 0.1%, 30 min
# [10] = NaNO2 10 mM, test item 0.3%, 30 min
# [11] = NaNO2 30 mM, test item 0.1%, 30 min
# [12] = NaNO2 30 mM, test item 0.3%, 30 min
# [13] = FIG. 3, 2 to 3 replicate experiments
# [14] = NaNO2 1 mM + DW (sodium nitrite alone)
# [15] = NaNO2 3 mM + DW (sodium nitrite alone)
# [16] = NaNO2 10 mM + DW (sodium nitrite alone)
# [17] = NaNO2 30 mM + DW (sodium nitrite alone)
smiles,measurement,setting,value
"OP(O)O [Composition H3PO3, phosphorous acid]",M. oryzae fungal growth (mm),"Magnaporthe oryzae; NaNO2 0 mM, composition 1%",21 mm
same,M. oryzae fungal growth (mm),"Magnaporthe oryzae; NaNO2 10 mM, composition 0.1%",20 mm
same,"percent of control (A, B, M) used to calculate Sf","Magnaporthe oryzae; NaNO2 10 mM, composition 0.3%",38%
same,M. oryzae fungal growth (mm),"Magnaporthe oryzae; NaNO2 10 mM, composition 0.3%",13 mm
same,"percent of control (A, B, M) used to calculate Sf","Magnaporthe oryzae; NaNO2 10 mM, composition 1%",48%
same,M. oryzae fungal growth (mm),"Magnaporthe oryzae; NaNO2 10 mM, composition 1%",11 mm
same,fungicidal activity to M. oryzae,"Magnaporthe oryzae; absence of sodium nitrite, 1% of stock solution",not fungicidal
same,pH of a 1% solution in DW,[1]; 1% in distilled water,2.12
same,pH: 1% in DW + 100 mM NaNO2,[1]; 1% in distilled water with 100 mM sodium nitrite,4.22
same,"Fungal growth score, spores of B. cinerea","spores of B. cinerea; NaNO2 0 mM, test item 0.1%, 30 min",2
same,"Fungal growth score, spores of B. cinerea",spores of B. cinerea; [4],2
same,"Fungal growth score, spores of B. cinerea","spores of B. cinerea; NaNO2 0 mM, test item 1%, 30 min",2
same,"Fungal growth score, spores of B. cinerea",spores of B. cinerea; [5],2
same,"Fungal growth score, spores of B. cinerea",spores of B. cinerea; [6],2
same,"Fungal growth score, spores of B. cinerea","spores of B. cinerea; NaNO2 1 mM, test item 1%, 30 min",2
same,"Fungal growth score, spores of B. cinerea",spores of B. cinerea; [7],2
same,"Fungal growth score, spores of B. cinerea",spores of B. cinerea; [8],2
same,"Fungal growth score, spores of B. cinerea","spores of B. cinerea; NaNO2 3 mM, test item 1%, 30 min",1
same,"Fungal growth score, spores of B. cinerea",spores of B. cinerea; [9],2
same,"Fungal growth score, spores of B. cinerea",spores of B. cinerea; [10],2
same,"Fungal growth score, spores of B. cinerea","spores of B. cinerea; NaNO2 10 mM, test item 1%, 30 min",0
same,"Fungal growth score, spores of B. cinerea",spores of B. cinerea; [11],2
same,"Fungal growth score, spores of B. cinerea",spores of B. cinerea; [12],2
same,"Fungal growth score, spores of B. cinerea","spores of B. cinerea; NaNO2 30 mM, test item 1%, 30 min",0
same,"Fungal growth score, spores of B. cinerea","spores of B. cinerea; NaNO2 100 mM, test item 0.1%, 30 min",2
same,"Fungal growth score, spores of B. cinerea","spores of B. cinerea; NaNO2 100 mM, test item 0.3%, 30 min",1
same,"Fungal growth score, spores of B. cinerea","spores of B. cinerea; NaNO2 100 mM, test item 1%, 30 min",0
same,"Fungal growth score, spores of F. oxysporum",spores of F. oxysporum; [4],2
same,"Fungal growth score, spores of F. oxysporum","spores of F. oxysporum; NaNO2 1 mM, test item 0.03%, 30 min",2
same,"Fungal growth score, spores of F. oxysporum",spores of F. oxysporum; [5],2
same,"Fungal growth score, spores of F. oxysporum",spores of F. oxysporum; [6],2
same,"Fungal growth score, spores of F. oxysporum","spores of F. oxysporum; NaNO2 3 mM, test item 0.03%, 30 min",2
same,"Fungal growth score, spores of F. oxysporum",spores of F. oxysporum; [7],2
same,"Fungal growth score, spores of F. oxysporum",spores of F. oxysporum; [8],1
same,"Fungal growth score, spores of F. oxysporum","spores of F. oxysporum; NaNO2 10 mM, test item 0.03%, 30 min",2
same,"Fungal growth score, spores of F. oxysporum",spores of F. oxysporum; [9],2
same,"Fungal growth score, spores of F. oxysporum",spores of F. oxysporum; [10],0
same,"Fungal growth score, spores of F. oxysporum","spores of F. oxysporum; NaNO2 30 mM, test item 0.03%, 30 min",2
same,"Fungal growth score, spores of F. oxysporum",spores of F. oxysporum; [11],1
same,"Fungal growth score, spores of F. oxysporum",spores of F. oxysporum; [12],0
same,IC50 values with R. solani (fungal growth),Rhizoctonia solani [2],around 250 mg/L
same,IC50 (% of stock solution) on growth of R. solani,Rhizoctonia solani [2],0.64^+ % of stock solution
same,IC50 (% of stock solution) on growth of R. solani,Rhizoctonia solani [2]; listed as phosphorous acid,0.64 % of stock solution
same,Day 1 growth in mm,Rhizoctonia solani [3]; 10 mg/L (Table 9),18 mm
same,Day black SCL 1st seen,Rhizoctonia solani [3]; 10 mg/L (Table 9),5
same,Day growth confluent,Rhizoctonia solani [3]; 10 mg/L (Table 9),2
same,Day white SCL 1st seen,Rhizoctonia solani [3]; 10 mg/L (Table 9),3
same,No. black SCL on day 10,Rhizoctonia solani [3]; 10 mg/L (Table 9),17
same,Day 1 growth in mm,Rhizoctonia solani [3]; 12 mg/L (Table 11),20 mm
same,Day black SCL 1st seen,Rhizoctonia solani [3]; 12 mg/L (Table 11),6
same,Day growth confluent,Rhizoctonia solani [3]; 12 mg/L (Table 11),2
same,Day white SCL 1st seen,Rhizoctonia solani [3]; 12 mg/L (Table 11),3
same,No. black SCL on day 10,Rhizoctonia solani [3]; 12 mg/L (Table 11),>20
same,Day 1 growth in mm,"Rhizoctonia solani [3]; 12 mg/L, adjusted to equal amounts of PO3 group (Table 10)",18 mm
same,Day black SCL 1st seen,"Rhizoctonia solani [3]; 12 mg/L, equal PO3 (Table 10)",6
same,Day growth confluent,"Rhizoctonia solani [3]; 12 mg/L, equal PO3 (Table 10)",2
same,Day white SCL 1st seen,"Rhizoctonia solani [3]; 12 mg/L, equal PO3 (Table 10)",3
same,No. black SCL on day 10,"Rhizoctonia solani [3]; 12 mg/L, equal PO3 (Table 10)",>20
same,Day 1 growth in mm,Rhizoctonia solani [3]; 20 mg/L (Table 9),18 mm
same,Day growth confluent,Rhizoctonia solani [3]; 20 mg/L (Table 9),2
same,Day white SCL 1st seen,Rhizoctonia solani [3]; 20 mg/L (Table 9),4
same,No. black SCL on day 10,Rhizoctonia solani [3]; 20 mg/L (Table 9),0
same,Day 1 growth in mm,Rhizoctonia solani [3]; 40 mg/L (Table 9),16 mm
same,Day growth confluent,Rhizoctonia solani [3]; 40 mg/L (Table 9),2
same,No. black SCL on day 10,Rhizoctonia solani [3]; 40 mg/L (Table 9),0
same,Day 1 growth in mm,Rhizoctonia solani [3]; 40 mg/L (Table 11),19 mm
same,Day growth confluent,Rhizoctonia solani [3]; 40 mg/L (Table 11),2
same,No. black SCL on day 10,Rhizoctonia solani [3]; 40 mg/L (Table 11),0
same,Day 1 growth in mm,"Rhizoctonia solani [3]; 40 mg/L, adjusted to equal amounts of PO3 group (Table 10)",16 mm
same,Day growth confluent,"Rhizoctonia solani [3]; 40 mg/L, equal PO3 (Table 10)",2
same,No. black SCL on day 10,"Rhizoctonia solani [3]; 40 mg/L, equal PO3 (Table 10)",0
same,Day 1 growth in mm,Rhizoctonia solani [3]; 80 mg/L (Table 9),14 mm
same,Day growth confluent,Rhizoctonia solani [3]; 80 mg/L (Table 9),3
same,No. black SCL on day 10,Rhizoctonia solani [3]; 80 mg/L (Table 9),0
same,Day 1 growth in mm,Rhizoctonia solani [3]; 120 mg/L (Table 11),14 mm
same,Day growth confluent,Rhizoctonia solani [3]; 120 mg/L (Table 11),3
same,No. black SCL on day 10,Rhizoctonia solani [3]; 120 mg/L (Table 11),0
same,Day 1 growth in mm,"Rhizoctonia solani [3]; 120 mg/L, adjusted to equal amounts of PO3 group (Table 10)",10 mm
same,Day growth confluent,"Rhizoctonia solani [3]; 120 mg/L, equal PO3 (Table 10)",4
same,No. black SCL on day 10,"Rhizoctonia solani [3]; 120 mg/L, equal PO3 (Table 10)",0
same,Day 1 growth in mm,Rhizoctonia solani [3]; 160 mg/L (Table 9),11 mm
same,Day growth confluent,Rhizoctonia solani [3]; 160 mg/L (Table 9),3
same,No. black SCL on day 10,Rhizoctonia solani [3]; 160 mg/L (Table 9),0
same,Day 1 growth in mm,Rhizoctonia solani [3]; 400 mg/L (Table 11),6 mm
same,No. black SCL on day 10,Rhizoctonia solani [3]; 400 mg/L (Table 11),0
same,Day 1 growth in mm,"Rhizoctonia solani [3]; 400 mg/L, adjusted to equal amounts of PO3 group (Table 10)",5 mm
same,No. black SCL on day 10,"Rhizoctonia solani [3]; 400 mg/L, equal PO3 (Table 10)",0
same,times more active than AMPA at inhibiting black sclerotia formation,Rhizoctonia solani [3]; [13],around 30 times
same,times more active than glyphosate at inhibiting black sclerotia formation,Rhizoctonia solani [3]; [13],around 20 times
"O=NO [NaNO2, sodium nitrite]","Fungal growth score, spores of B. cinerea",spores of B. cinerea; [14],2
same,"Fungal growth score, spores of B. cinerea",spores of B. cinerea; [15],2
same,"Fungal growth score, spores of B. cinerea",spores of B. cinerea; [16],2
same,"Fungal growth score, spores of B. cinerea",spores of B. cinerea; [17],2
same,"Fungal growth score, spores of B. cinerea",spores of B. cinerea; NaNO2 100 mM + DW (sodium nitrite alone),2
same,sporicidal activity to F. oxysporum spores,"spores of F. oxysporum; 100 millimolar sodium nitrite alone, data not shown",sporicidal
same,"Fungal growth score, spores of F. oxysporum",spores of F. oxysporum; [14],2
same,"Fungal growth score, spores of F. oxysporum",spores of F. oxysporum; [15],2
same,"Fungal growth score, spores of F. oxysporum",spores of F. oxysporum; [16],2
same,"Fungal growth score, spores of F. oxysporum",spores of F. oxysporum; [17],2
same,"Mean fungal growth (in mm ± SD, n = 2) of black sclerotia after treatment",sclerotia of R. solani; NaNO2 30 mM + 0 composition (sodium nitrite alone),41 ± 2 mm and 43 ± 2 mm
same,"scleroticidal effect (words, FIG. 2)","sclerotia of R. solani; sodium nitrite alone (0+100), white or black sclerotia",little or no significant scleroticidal effect

# Reference: US11395492B2, “Antimicrobial and agrochemical compositions” (Myco Sciences Limited, priority 2015, dated 2022)
